Laboratory results from US10766879B2, “Pyrimidine derivatives as kinase inhibitors and their therapeutical applications” (NantBioScience, Inc., priority 2015, dated 2020).

What was measured:
Abl kinase = target: T1, Abl kinase (Homo sapiens, UniProt P00519); experiment: KinaseProfiler kinase inhibition assay, Abl; format: biochemical; conditions: 1 μM compound
T1 construct: purchased Millipore (KinaseProfiler Service)

Alk kinase = target: T2, Alk kinase (Homo sapiens, UniProt Q9UM73); experiment: KinaseProfiler kinase inhibition assay, Alk; format: biochemical; conditions: 1 μM compound
T2 construct: purchased Millipore (KinaseProfiler Service)

c-Src kinase = target: T3, c-Src kinase (Homo sapiens, UniProt P12931); experiment: KinaseProfiler kinase inhibition assay, c-Src; format: biochemical; conditions: 1 μM compound; read-out: % Inhibition @1 μM cSrc
T3 construct: purchased Millipore (KinaseProfiler Service)
T3 sequence (P12931 whole entry): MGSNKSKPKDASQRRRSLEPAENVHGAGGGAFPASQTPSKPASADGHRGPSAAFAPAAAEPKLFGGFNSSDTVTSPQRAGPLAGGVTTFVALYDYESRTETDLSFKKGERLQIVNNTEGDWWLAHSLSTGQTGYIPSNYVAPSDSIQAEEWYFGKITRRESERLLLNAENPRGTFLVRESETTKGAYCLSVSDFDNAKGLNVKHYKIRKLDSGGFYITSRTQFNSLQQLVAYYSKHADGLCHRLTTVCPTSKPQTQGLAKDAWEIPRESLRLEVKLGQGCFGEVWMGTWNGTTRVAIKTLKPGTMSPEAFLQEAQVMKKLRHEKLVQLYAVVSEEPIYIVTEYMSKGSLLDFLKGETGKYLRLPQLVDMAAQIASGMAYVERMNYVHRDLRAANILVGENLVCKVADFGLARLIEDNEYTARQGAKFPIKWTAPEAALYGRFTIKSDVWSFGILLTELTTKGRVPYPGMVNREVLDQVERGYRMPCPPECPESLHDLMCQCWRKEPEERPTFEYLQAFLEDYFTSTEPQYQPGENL

FGFR1 kinase = target: T4, FGFR1 kinase (Homo sapiens, UniProt P11362); experiment: KinaseProfiler kinase inhibition assay, FGFR1; format: biochemical; conditions: 1 μM compound
T4 construct: purchased Millipore (KinaseProfiler Service)

KDR kinase = target: T5, KDR kinase (Homo sapiens, UniProt P35968); experiment: KinaseProfiler kinase inhibition assay, KDR; format: biochemical; conditions: 1 μM compound
T5 construct: purchased Millipore (KinaseProfiler Service)

Ret kinase = target: T6, Ret kinase (Homo sapiens, UniProt P07949); experiment: KinaseProfiler kinase inhibition assay, Ret; format: biochemical; conditions: 1 μM compound
T6 construct: purchased Millipore (KinaseProfiler Service)
T6 sequence (P07949 29-1114): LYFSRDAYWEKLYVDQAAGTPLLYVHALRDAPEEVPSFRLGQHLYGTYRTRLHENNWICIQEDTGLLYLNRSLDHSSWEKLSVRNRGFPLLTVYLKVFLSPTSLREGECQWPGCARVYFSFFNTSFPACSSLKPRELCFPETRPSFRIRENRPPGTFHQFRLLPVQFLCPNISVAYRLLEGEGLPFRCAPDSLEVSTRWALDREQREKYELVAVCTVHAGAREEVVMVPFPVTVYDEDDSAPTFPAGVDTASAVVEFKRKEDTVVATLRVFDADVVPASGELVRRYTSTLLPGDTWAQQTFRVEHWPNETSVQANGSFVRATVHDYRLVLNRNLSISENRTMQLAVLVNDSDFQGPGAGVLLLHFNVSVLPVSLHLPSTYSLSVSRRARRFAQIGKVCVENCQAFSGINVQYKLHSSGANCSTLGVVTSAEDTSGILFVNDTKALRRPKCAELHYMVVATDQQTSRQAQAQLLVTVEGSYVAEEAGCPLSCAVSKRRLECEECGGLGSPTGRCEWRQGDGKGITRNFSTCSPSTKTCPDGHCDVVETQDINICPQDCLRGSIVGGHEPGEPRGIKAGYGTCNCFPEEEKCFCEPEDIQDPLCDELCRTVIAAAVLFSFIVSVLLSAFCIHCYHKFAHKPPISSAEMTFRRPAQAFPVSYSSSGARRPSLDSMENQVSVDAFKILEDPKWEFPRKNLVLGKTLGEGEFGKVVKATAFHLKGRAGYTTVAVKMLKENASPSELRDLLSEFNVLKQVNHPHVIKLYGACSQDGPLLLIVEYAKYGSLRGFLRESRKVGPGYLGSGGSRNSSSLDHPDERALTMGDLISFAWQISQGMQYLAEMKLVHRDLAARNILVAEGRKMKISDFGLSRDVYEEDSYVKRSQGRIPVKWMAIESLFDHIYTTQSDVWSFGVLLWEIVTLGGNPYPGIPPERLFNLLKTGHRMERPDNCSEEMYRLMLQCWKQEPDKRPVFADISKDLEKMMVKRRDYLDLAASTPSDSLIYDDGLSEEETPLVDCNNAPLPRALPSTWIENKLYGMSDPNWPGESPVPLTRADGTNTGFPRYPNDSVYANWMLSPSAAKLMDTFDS

Tie2 = target: T7, Tie2 (Homo sapiens, UniProt Q02763); experiment: KinaseProfiler kinase inhibition assay, Tie2; format: biochemical; conditions: 1 μM compound
T7 construct: purchased Millipore (KinaseProfiler Service)
T7 sequence (Q02763 23-1124): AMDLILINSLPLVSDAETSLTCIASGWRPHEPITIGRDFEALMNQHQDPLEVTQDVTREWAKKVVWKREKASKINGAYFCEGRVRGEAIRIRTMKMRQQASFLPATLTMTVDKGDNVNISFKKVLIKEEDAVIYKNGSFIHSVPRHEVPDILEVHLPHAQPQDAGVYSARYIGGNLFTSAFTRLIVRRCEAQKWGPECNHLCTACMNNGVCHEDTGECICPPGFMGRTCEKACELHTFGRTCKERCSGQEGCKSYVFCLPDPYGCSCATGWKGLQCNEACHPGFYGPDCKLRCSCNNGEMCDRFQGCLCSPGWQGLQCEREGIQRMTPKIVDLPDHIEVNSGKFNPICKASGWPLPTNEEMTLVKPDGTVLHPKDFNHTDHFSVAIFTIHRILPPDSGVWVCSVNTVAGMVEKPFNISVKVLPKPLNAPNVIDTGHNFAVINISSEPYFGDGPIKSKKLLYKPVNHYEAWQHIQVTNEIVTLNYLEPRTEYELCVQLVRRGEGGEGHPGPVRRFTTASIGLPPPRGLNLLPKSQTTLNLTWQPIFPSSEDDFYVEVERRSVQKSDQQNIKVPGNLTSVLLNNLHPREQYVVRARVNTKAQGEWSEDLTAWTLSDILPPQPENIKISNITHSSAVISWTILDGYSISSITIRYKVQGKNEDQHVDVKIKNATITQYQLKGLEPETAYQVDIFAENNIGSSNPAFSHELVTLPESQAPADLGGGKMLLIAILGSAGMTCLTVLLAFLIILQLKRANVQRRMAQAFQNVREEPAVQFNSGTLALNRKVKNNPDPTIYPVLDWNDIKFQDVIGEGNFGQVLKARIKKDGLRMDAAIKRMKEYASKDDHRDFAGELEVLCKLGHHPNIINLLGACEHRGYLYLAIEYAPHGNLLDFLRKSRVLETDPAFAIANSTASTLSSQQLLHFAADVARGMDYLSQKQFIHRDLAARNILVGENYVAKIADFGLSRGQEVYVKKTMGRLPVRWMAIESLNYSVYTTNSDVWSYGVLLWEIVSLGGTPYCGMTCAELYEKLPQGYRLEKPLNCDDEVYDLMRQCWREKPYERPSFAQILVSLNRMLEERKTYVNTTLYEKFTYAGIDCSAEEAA

AN3_CA = experiment: CellTiterblue viability, 72 hr, AN3_CA; format: cell-based; conditions: Homo sapiens, AN3-CA, AN3_CA cells
Procedure: (§1) A number of studies were performed to analyze the consequences of tyrosine kinase inhibition in cell lines. To do this, 1000 cells are seeded in 27 μl/well in 384-well microplates, which are then placed in a humidified CO2 incubator at 37° C. overnight. The next day, 3 μl/well of 10× concentrated drug is added and the plates are returned to the incubator for 72 hr. After 72 hr incubation, plates are removed and […] CellTiterblue (Promega) viability reagent is added. Plates are returned to the incubator for 3 hr, after which it is fluorescence measurements are read on the Victor X3 plate reader (Perkin Elmer). Data are analyzed using Excel (Microsoft), and GI50 values are determined using Prism (Graphpad).

Kato III = experiment: CellTiterblue viability, 72 hr, Kato III; format: cell-based; conditions: Homo sapiens, Kato III cells
Procedure: as §1

KG1a = experiment: CellTiterblue viability, 72 hr, KG1a; format: cell-based; conditions: Homo sapiens, KG-1a, KG1a cells
Procedure: as §1

RT112 = experiment: CellTiterblue viability, 72 hr, RT112; format: cell-based; conditions: Homo sapiens, RT-112, RT112 cells
Procedure: as §1

phospho-FGFR2 = target: T8, phospho-FGFR2 (Homo sapiens, UniProt P21802); experiment: phospho-FGFR ELISA on Kato III cells; format: cell-based; conditions: read-out: EC50 (nM) P-FGFR2, Kato III cells
T8 construct: endogenous in cells; host or cells: Kato III cells
T8 sequence (P21802 22-766 isoform P21802-8 limits assumed): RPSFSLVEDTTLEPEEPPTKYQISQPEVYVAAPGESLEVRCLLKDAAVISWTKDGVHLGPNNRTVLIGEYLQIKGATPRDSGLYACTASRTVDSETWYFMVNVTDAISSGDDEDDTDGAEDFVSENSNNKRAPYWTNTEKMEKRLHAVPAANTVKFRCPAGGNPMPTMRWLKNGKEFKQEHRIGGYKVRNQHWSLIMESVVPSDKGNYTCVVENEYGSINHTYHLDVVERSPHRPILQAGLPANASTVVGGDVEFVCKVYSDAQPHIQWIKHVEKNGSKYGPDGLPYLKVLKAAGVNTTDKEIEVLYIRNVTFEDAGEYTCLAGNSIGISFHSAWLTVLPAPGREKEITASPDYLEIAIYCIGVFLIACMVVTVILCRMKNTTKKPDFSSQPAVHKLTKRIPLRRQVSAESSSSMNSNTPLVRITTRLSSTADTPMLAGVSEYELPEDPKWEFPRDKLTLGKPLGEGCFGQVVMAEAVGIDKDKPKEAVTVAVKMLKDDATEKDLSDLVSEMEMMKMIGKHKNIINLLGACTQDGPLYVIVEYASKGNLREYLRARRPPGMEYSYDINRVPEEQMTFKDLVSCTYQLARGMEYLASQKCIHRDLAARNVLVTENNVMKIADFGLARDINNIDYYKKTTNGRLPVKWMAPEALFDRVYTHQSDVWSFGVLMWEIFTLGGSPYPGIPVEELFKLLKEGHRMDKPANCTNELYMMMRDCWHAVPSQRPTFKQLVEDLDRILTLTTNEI
Procedure: For the phospho-FGFR, the following assay Protocol was used. 25,000 cells are seeded in 90 μl/well in 96-well microplates, which are then placed in a humidified CO2 incubator at 37° C. overnight. 96-well ELISA plates (Mesoscale Discovery) are coated with capture antibody (R&D Systems Duo-Set) at 4 μg/ml, 30 μl/well. The next day, 10 μl/well of 10× concentrated drug is added and the plates are returned to the incubator for […]. ELISA plates are washed using an automated plate washer (BioTek Instruments). After 30 min, cells are inverted and gently tapped to remove excess medium, and immediately placed on ice. 30 μl mPer cell lysis reagent (Thermo Scientific) with protease and phosphatase inhibitors is added/well. After 15 min on ice, lysates are mixed and 30 μl transferred to the ELISA plate. Plates are incubated for 2 hr, washed, and 30 μl/well detection antibody is added. After 1 hr, plates are washed and 30 μl “SulfoTag” (MesoScale Discovery) detection reagent is added. After 1 hr, plates are washed and 150 μl/well read solution is added. Electrochemiluminescence is determined on the Mesoscale Discovery Sector Imager 2000. Data are analyzed using Excel (Microsoft), and EC50 values are determined using Prism (Graphpad).

MDA-MB134 = experiment: CellTiterblue viability, 72 hr, MDA-MB134; format: cell-based; conditions: MDA-MB134 cells
Procedure: as §1

T1 sequence (P00519 whole entry): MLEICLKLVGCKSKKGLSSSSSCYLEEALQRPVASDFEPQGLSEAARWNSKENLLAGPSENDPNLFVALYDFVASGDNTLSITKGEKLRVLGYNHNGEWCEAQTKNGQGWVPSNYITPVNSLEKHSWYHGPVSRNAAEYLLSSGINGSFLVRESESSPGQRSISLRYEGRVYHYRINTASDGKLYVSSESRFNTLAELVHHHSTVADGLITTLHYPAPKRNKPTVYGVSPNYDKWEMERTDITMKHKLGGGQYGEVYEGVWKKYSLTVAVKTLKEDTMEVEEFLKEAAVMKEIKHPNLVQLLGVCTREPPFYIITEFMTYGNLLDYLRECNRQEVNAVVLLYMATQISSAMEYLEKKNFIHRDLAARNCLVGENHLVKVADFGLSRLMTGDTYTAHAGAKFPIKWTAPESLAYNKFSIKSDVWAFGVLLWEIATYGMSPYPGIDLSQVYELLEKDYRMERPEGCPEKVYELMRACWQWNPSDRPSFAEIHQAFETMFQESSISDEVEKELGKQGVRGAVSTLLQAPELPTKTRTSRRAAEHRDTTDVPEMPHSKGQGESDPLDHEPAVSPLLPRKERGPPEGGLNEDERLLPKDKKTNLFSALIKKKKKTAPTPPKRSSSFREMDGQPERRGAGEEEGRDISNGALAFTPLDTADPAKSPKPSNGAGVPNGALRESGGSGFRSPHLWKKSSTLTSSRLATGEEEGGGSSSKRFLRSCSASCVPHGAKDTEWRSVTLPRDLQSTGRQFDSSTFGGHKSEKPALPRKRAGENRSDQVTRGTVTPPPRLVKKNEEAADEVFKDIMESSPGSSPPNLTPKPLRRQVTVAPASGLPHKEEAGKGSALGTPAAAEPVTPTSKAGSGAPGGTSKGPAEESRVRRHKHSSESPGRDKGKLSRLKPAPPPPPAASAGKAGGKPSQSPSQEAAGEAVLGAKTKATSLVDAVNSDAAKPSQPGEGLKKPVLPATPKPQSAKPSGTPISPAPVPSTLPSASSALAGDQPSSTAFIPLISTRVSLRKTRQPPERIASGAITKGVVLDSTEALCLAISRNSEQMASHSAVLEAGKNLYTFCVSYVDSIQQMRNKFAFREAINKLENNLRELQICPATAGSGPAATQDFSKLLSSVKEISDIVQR

| Compound | inhibition at 1 µM (Abl kinase) | inhibition at 1 µM (Alk kinase) | inhibition at 1 µM (c-Src kinase) | inhibition at 1 µM (FGFR1 kinase) | inhibition at 1 µM (KDR kinase) | inhibition at 1 µM (Ret kinase) | inhibition at 1 µM (Tie2) | GI50 (AN3_CA) | GI50 (Kato III) | GI50 (KG1a) | GI50 (RT112) | EC50 (phospho-FGFR2) | GI50 (MDA-MB134) |
| --- | --- | --- | --- | --- | --- | --- | --- | --- | --- | --- | --- | --- | --- |
| Cc1cc2c(F)c(Oc3ncnc(Nc4ccc(N5CCN(C)CC5)cn4)c3Cl)ccc2[nH]1 [Compound 34, 5-chloro-6-((4-fluoro-2-methyl-1H-indol-5-yl)oxy)-N-(5-(4-methylpiperazin-1-yl)pyridin-2-yl)pyrimidin-4-amine] | 19% | 15% | 9% | 98% | 96% | 25% | 18% | > 500 nM | 229 nM | > 100 nM | > 100 nM | > 100 nM |  |
| Cc1cc2c(F)c(Oc3cc(Nc4ccc(N5CCNCC5)cc4)ncn3)cc(F)c2[nH]1 [Compound 51] | 73% | 54% | 70% | 101% | 97% | 74% | 82% | 406 nM | 169 nM | > 100 nM | > 100 nM | 38 nM |  |
| Cc1cc2c(F)c(Oc3ncnc(Nc4ccc(N5CCN(C)CC5)cc4)c3C#N)ccc2[nH]1 [Compound 54] | 3% | -30% | 8% | 101% | 97% | -30% | 21% | 214 nM | 12 nM | 4 nM | 103 nM |  | 20 nM |
| CCN1CCN(c2ccc(Nc3ncnc(Oc4ccc5[nH]c(C)cc5c4F)c3C#N)nc2)CC1 [Compound 55] | 2% | -23% | 10% | 99% | 91% | -48% | 31% | 98 nM | 319 nM | 7 nM | > 500 nM |  | 78 nM |
| Cc1cc2c(F)c(Oc3ncnc(Nc4ccc(N5CCNCC5)cc4)c3C#N)ccc2[nH]1 [Compound 57] | -6% | -40% | 12% | 99% | 94% | -26% | 30% | > 500 nM | 51 nM | 4 nM | 33 nM |  | 8 nM |
| CCN1CCN(c2ccc(Nc3ncnc(Oc4cc(F)c5[nH]c(C)cc5c4F)c3C#N)cc2)CC1 [Compound 60] | -7% | 3% | 3% | 100% | 93% | -42% | 24% | > 500 nM | 26 nM | 5 nM | 47 nM |  | 18 nM |
| CCN1CCN(c2ccc(Nc3ncnc(Oc4cc(F)c5[nH]c(C)cc5c4F)c3C#N)nc2)CC1 [Compound 61] | 3% | -41% | -9% | 100% | 51% | -13% | 23% | > 500 nM | 77 nM | 4 nM | 11 nM |  | 28 nM |
| CCN1CCN(c2ccc(Nc3ncnc(Oc4ccc5c(cc(C)n5C)c4F)c3F)cc2)CC1 [Compound 63] | 3% | -3% | 1% | 91% | 10% | -41% | 13% | > 500 nM | > 500 nM | > 500 nM | > 500 nM |  | 282 nM |
| CCN1CCN(c2ccc(Nc3ncnc(Oc4ccc5c(cc(C)n5C)c4F)c3C#N)cc2)CC1 [Compound 65] | -1% | -28% | 13% | 98% | 8% | -19% | 37% | > 500 nM | > 500 nM | > 500 nM | > 500 nM |  | 461 nM |
| CCN1CCN(c2ccc(Nc3ncnc(Oc4ccc5[nH]c(C)cc5c4F)c3C(N)=O)cc2)CC1 [Compound 68] | 67% | 46% | 85% | 100% | 96% | 97% | 94% | 79 nM | 23 nM | 32 nM | 11 nM |  | 111 nM |
| Cc1cc2c(F)c(Oc3cc(Nc4ccc(N5CCN(C)CC5)cc4)ncn3)ccc2[nH]1 [Example 2] | 45% | 3% | 47% | 102% | 97% | 75% | 58% | 490 nM | 165 nM | > 100 nM | > 100 nM | 88 nM |  |
| CCN1CCN(c2ccc(Nc3cc(Oc4ccc5[nH]c(C)cc5c4F)ncn3)cc2)CC1 [Example 3] | 47% | -2% | 46% | 102% | 97% | 75% | 61% | > 500 nM |  | > 100 nM | > 100 nM | 93 nM |  |
| COc1ccc(-c2cc(Nc3cc(Oc4ccc5[nH]c(C)cc5c4F)ncn3)n[nH]2)cc1OC [Example 5] | 63% | -10% | 65% | 93% | 97% | 77% | 45% | 211 nM | > 500 nM | > 100 nM | > 100 nM | > 100 nM |  |
| Cc1cc2c(F)c(Oc3cc(Nc4cc(-c5ccccn5)[nH]n4)ncn3)ccc2[nH]1 [Example 6] | 62% | 6% | 47% | 95% | 97% | 78% | 59% | 573 nM | > 500 nM | > 100 nM | > 100 nM | > 100 nM |  |
| Cc1cc2c(F)c(Oc3cc(Nc4cc(C5CC5)[nH]n4)ncn3)ccc2[nH]1 [Example 16] | 64% | 2% | 54% | 92% | 90% | 79% | 75% | > 500 nM |  | > 100 nM | > 100 nM | > 100 nM |  |
| C/C=C/c1cc(Nc2cc(Oc3ccc4[nH]c(C)cc4c3F)ncn2)n[nH]1 [Example 17] | 42% | 2% | 21% | 95% | 90% | 73% | 37% | > 500 nM |  | > 100 nM | > 100 nM | > 100 nM |  |
| Cc1cc2c(F)c(Oc3cc(Nc4cc(-c5ccco5)[nH]n4)ncn3)ccc2[nH]1 [Example 20] | 36% | 3% | 24% | 92% | 88% | 78% | 47% | > 500 nM |  | > 100 nM | > 100 nM | > 100 nM |  |
